Patent publication US20120184590A1, “FORMULATIONS OF INDOLE-3-CARBINOL DERIVED ANTITUMOR AGENTS WITH INCREASED ORAL BIOAVAILABILITY” (UNIVERSITY OF KANSAS, priority 2009, published 2012)
Values joined by “and” are separate entries in the source; they are usually repeats but may differ in a detail not shown here. Equal entries are not always repeated. Where two headings read alike, the source gives them in different places. Marks after values point to notes of the source that are not given here.

Experiment: Pharmacokinetics of SR13668 in dogs after i.v. and oral gavage dosing
Type: in vivo, beagle dogs
Details: for Fabs F/(1-ER): blood; for bioavailability: beagle (dogs), across all oral groups, dogs and monkeys; for Vd/F: read-out: VZ/F
Excerpt: Four non-naïve male beagle dogs (approximately 3 years of age; Ridglan Farms Inc. Mt. Horeb, Wis.) and four non-naïve male cynomolgus monkeys [cynos (macaca fasicularis); approximately 7 to 8 years of age; Charles River Laboratories, Inc., Houston, Tex.] were used in this study. Prior to experimental initiation for the present study, the attending veterinarian certified that the animals were healthy and free from disease and parasites.
For both species, each animal was part of each experimental group, with a 7-day interval between treatments to allow for washout of the dosing formulation and its effects. Dosing formulations of SR13668 were administered by oral gavage (intragastric) or intravenous (i.v.) injection as a single dose or once daily for seven consecutive days. Oral to doses were administered at a dosing volume of 5 mL/kg of body weight, while intravenous doses were administered at a dosing volume of 0.5 mL/kg of body weight. Dogs were dosed with 93.6 mg/m^2 SR13668 intravenously in DMSO:PEG300 15:85 (v/v) or orally in Solutol® vehicle (two groups, fed and after an overnight fast). Monkeys were dosed with 84.2 mg/m^2 SR13668 intravenously in DMSO:PEG300 15:85 (v/v) or orally (336.7 mg/m^2 SR13668 for the oral high dose group) in PEG400:Labrasol® 1:1 (v/v) or Solutol® vehicles. Vehicle control groups were used to assess the tolerability of the vehicle and for clinical pathology evaluations.
Blood samples were collected from each animal at 10 time points (0, 0.25, 0.5, 1, 2, 4, 6, 8, 12 and 24 hours post-dose) during the first and last 24-hour segment of each dosing regimen. For single intravenous dose experiments, samples were collected during the 24-hour post-dose period only. Samples were transferred to Vacutainer tubes containing ethylenediaminetetraacetic acid (EDTA; Fisher Scientific, Pittsburgh, Pa.). The tubes were inverted several times to mix and then placed on ice until storage or centrifugation for plasma preparation. After centrifugation, the plasma was transferred into storage tubes (0.5 mL), which were placed on dry ice and then stored frozen (approximately −70° C.).
Levels of SR13668 in plasma and blood were measured using a tandem mass to spectrometer (API 3000; Applied Biosystems/MDS Sciex, Foster City, Calif.) equipped with a high performance liquid chromatograph (Agilent 1200; Agilent Technologies, Wilmington, Del.). For SR13668 determination, a 100 μL blood or plasma aliquot was mixed with 1 mL of acetonitrile (ACN; Sigma-Aldrich, St. Louis, Mo.). After vortex-mixing for one minute, the sample was centrifuged at 4° C. and 7000 RPM for 10 minutes to remove precipitated proteins, and the supernatant was transferred to a clean tube and dried under nitrogen flow at room temperature (approximately 25° C.). After the evaporation was completed, the residue was reconstituted in 500 μL of ACN/water (v/v 70:30), and vortex-mixed and centrifuged again. An aliquot of the resulting supernatant was transferred to an autosampler tube for instrumental analysis.
A freshly prepared SR13668 standard curve was analyzed along with samples on each day of analysis. The chromatographic column was a Luna 3μ C18(2) 110 Å 30×2.0 mm (Phenomenex, Torrance, Calif.). The column temperature was maintained at 25° C., and a flow rate of 0.30 mL/min was used. The mobile phase consisted of MPA: formic acid in water (0.05%, v/v) and MPB: formic acid in ACN (0.05%, v/v). The mobile phase gradient was as follows: after injection, initial conditions with MPA at 40% were held for 0.01 min, decreased to 5% and held constant for 3 min, returning to initial conditions for another 3 min of re-equilibration time. Retention time of SR13668 was approximately 2.4 min. Total run time was 6 min. A turbo ion spray interface was used as the ion source operating in negative ion mode. Acquisition was performed in multiple reaction monitoring mode using ions 429.15 (Q1) and 414.12 (Q3) Dalton. […]

[1] = dogs, whole blood, 93.6 mg/m^2 (4.68 mg/kg) iv single dose, DMSO:PEG300 15:85 v/v, fed
[2] = male, beagle, dog, plasma, iv, 4.68 mg/kg, dogs, plasma, 93.6 mg/m^2 (4.68 mg/kg) i.v. single dose, DMSO:PEG300 15:85 v/v, fed
[3] = male, beagle, dog, plasma, po, 4.68 mg/kg, dogs, 93.6 mg/m^2 (4.68 mg/kg) oral gavage, Solutol, seventh daily dose, fasted
[4] = male, beagle, dog, plasma, po, 4.68 mg/kg, dogs, 93.6 mg/m^2 (4.68 mg/kg) oral gavage, Solutol, seventh daily dose, fed
[5] = male, beagle, dog, whole blood, iv, 4.68 mg/kg, dogs, whole blood, 93.6 mg/m^2 (4.68 mg/kg) iv single dose, DMSO:PEG300 15:85 v/v, fed
[6] = male, beagle, dog, whole blood, po, 4.68 mg/kg, dogs, 93.6 mg/m^2 (4.68 mg/kg) oral gavage, Solutol, seventh daily dose, fasted
[7] = male, beagle, dog, whole blood, po, 4.68 mg/kg, dogs, 93.6 mg/m^2 (4.68 mg/kg) oral gavage, Solutol, seventh daily dose, fed

Q: What does the source list for CCOC(=O)c1ccc2[nH]c3c(OC)c4[nH]c5ccc(C(=O)OCC)cc5c4cc3c2c1 [SR13668, 2,10-dicarbethoxy-6-methoxy-5,7-dihydro-indolo-(2,3-b)carbazole]?
A: CL (dogs, blood clearance, 93.6 mg/m^2 (4.68 mg/kg) oral gavage, Solutol, fasted): 1.8 L/h/kg; CL (dogs, blood clearance, 93.6 mg/m^2 (4.68 mg/kg) oral gavage, Solutol, fed): 1.54 L/h/kg; Fabs F/(1-ER) (dogs, 93.6 mg/m^2 (4.68 mg/kg) oral gavage, Solutol, fasted): 16.5%; Fabs F/(1-ER) (dogs, 93.6 mg/m^2 (4.68 mg/kg) oral gavage, Solutol, fed): 20.0%; F0-∞ (dogs, plasma, 93.6 mg/m^2 (4.68 mg/kg) i.v. single dose, DMSO:PEG300 15:85 v/v, fed): 100%; F0-∞ (dogs, plasma, 93.6 mg/m^2 (4.68 mg/kg) oral gavage, Solutol, seventh daily dose, fasted): 13.3 ± 4.0%; CL/F [1]: 0.244 ± 0.034^a,h L/hr/kg; F0-∞ [1]: 100%; F0-∞ (dogs, whole blood, 93.6 mg/m^2 (4.68 mg/kg) oral gavage, Solutol, seventh daily dose, fasted): 14.2 ± 4.5% and 14.2%; F0-∞ (dogs, whole blood, 93.6 mg/m^2 (4.68 mg/kg) oral gavage, Solutol, seventh daily dose, fed): 17.2 ± 4.3^h,i % and 17.2%; ER CLiv/Q (dogs, iv blood clearance over hepatic blood flow 30.9 mL/min/kg): 0.14; effect of fed or fasted condition on bioavailability (dogs, oral gavage, Solutol): did not have an effect; bioavailability (male, dog, plasma, read-out: plasma oral bioavailability, range): 0.7 to 14.6%; bioavailability (male, dog, whole blood, read-out: blood oral bioavailability, range): 1.1 to 17.2%; AUC(0-inf) [2]: 8.39 ± 1.19 µg·h/mL; Cmax [2]: 2.36 ± 0.573 µg/mL; MRT [2]: 6.3 ± 0.6 h; Tmax [2]: 0.25 h; half-life [2]: 5 ± 0.2 h; CL/F (male, beagle, dog, plasma, po, 4.68 mg/kg, dogs, plasma, 93.6 mg/m^2 (4.68 mg/kg) oral gavage, Solutol, seventh daily dose, fasted, read-out: CL/F (converted)): 4.58 L/h/kg; Vd/F (male, beagle, dog, plasma, po, 4.68 mg/kg, dogs, plasma, 93.6 mg/m^2 (4.68 mg/kg) oral gavage, Solutol, seventh daily dose, fasted): 64 ± 24 L/kg; CL/F (male, beagle, dog, plasma, po, 4.68 mg/kg, dogs, plasma, 93.6 mg/m^2 (4.68 mg/kg) oral gavage, Solutol, seventh daily dose, fed, read-out: CL/F (converted)): 4.18 L/h/kg; Vd/F (male, beagle, dog, plasma, po, 4.68 mg/kg, dogs, plasma, 93.6 mg/m^2 (4.68 mg/kg) oral gavage, Solutol, seventh daily dose, fed): 32.4 ± 9.6 L/kg; AUC(0-inf) [3]: 1.1 ± 0.339 µg·h/mL; Cmax [3]: 0.113 ± 0.058 µg/mL; MRT [3]: 12.8 ± 4.2 h; Tmax [3]: 2.8 ± 1.5 h; half-life [3]: 9.7 ± 2.4 h; AUC(0-inf) [4]: 1.24 ± 0.414 µg·h/mL; Cmax [4]: 0.207 ± 0.048 µg/mL; MRT [4]: 7.1 ± 1.1 h; Tmax [4]: 1.8 ± 0.5 h; half-life [4]: 5.6 ± 1.4 h; AUC(0-inf) [5]: 19.5 ± 3.16 µg·h/mL; Cmax [5]: 5.22 ± 0.742 µg/mL; MRT [5]: 6.7 ± 0.6 h; Tmax [5]: 0.25 h; half-life [5]: 5 ± 0.1 h; CL/F (male, beagle, dog, whole blood, po, 4.68 mg/kg, dogs, whole blood, 93.6 mg/m^2 (4.68 mg/kg) oral gavage, Solutol, seventh daily dose, fasted, read-out: CL/F (converted)): 1.8 L/h/kg; Vd/F (male, beagle, dog, whole blood, po, 4.68 mg/kg, dogs, whole blood, 93.6 mg/m^2 (4.68 mg/kg) oral gavage, Solutol, seventh daily dose, fasted): 18.6 ± 7.5 L/kg; CL/F (male, beagle, dog, whole blood, po, 4.68 mg/kg, dogs, whole blood, 93.6 mg/m^2 (4.68 mg/kg) oral gavage, Solutol, seventh daily dose, fed, read-out: CL/F (converted)): 1.54 L/h/kg; Vd/F (male, beagle, dog, whole blood, po, 4.68 mg/kg, dogs, whole blood, 93.6 mg/m^2 (4.68 mg/kg) oral gavage, Solutol, seventh daily dose, fed): 12.8 ± 4.8 L/kg; AUC(0-inf) [6]: 2.68 ± 0.577 µg·h/mL; Cmax [6]: 0.277 ± 0.087 µg/mL; MRT [6]: 10.9 ± 3.1 h; Tmax [6]: 2.8 ± 1.5 h; half-life [6]: 7 ± 1.8 h; AUC(0-inf) [7]: 3.41 ± 1.29 µg·h/mL; Cmax [7]: 0.575 ± 0.152 µg/mL; MRT [7]: 7.2 ± 0.9 h; Tmax [7]: 1.8 ± 0.5 h; half-life [7]: 5.9 ± 1.5 h; clearance (male, beagle, dog, whole blood, dogs, blood clearance, 93.6 mg/m^2 (4.68 mg/kg) iv, DMSO:PEG300 15:85 v/v, fed): 0.244 L/h/kg
